What was measured:
guinea pig = assay: In vivo tear secretion measured using phenol red threads after ocular instillation; details: 10 μM, phenol red thread 30 seconds, p<0.05, comparable to menthol at 200 μM, FIG. 2
Source text: The in vivo activity of the selected TRPM8 activating compounds (TZM-7) has been assessed in an animal model following the protocol described in Acosta M C et al., Invest Ophthalmol Vis Sci 2014 (Corneal sensory nerve activity in an experimental model of UV keratitis. Acosta M et al., Invest Ophthalmol Vis Sci May 1; 55(6):3403-12). […] Tear secretion can be measured using phenol red threads (Zone-Quick, Menicon, Nagoya, Japan) that are applied to the nasal edge of the lower eyelid for 30 seconds (after that time, the distance of the red-dyed thread is measured in mm).

TRPM8 = target: T1, TRPM8 (Homo sapiens, UniProt Q7Z2W7); assay: Ca2+ fluorimetry assay in CHO cell line stably expressing TRPM8; type: cell-based; details: CHO cells stably expressing TRPM8
T1 construct: expressed in transfected cells
Method: The cells were cultured in monolayer in EMEM medium (Earle's minimum essential medium with Earle's salts, Invitrogen) supplemented with 10% foetal bovine serum (FBS), 2 mM L-glutamine, 1% penicillin-streptomycin solution and […] of the Geneticin antibiotic (Sigma) and kept at 37° C. in a humidified atmosphere with 5% of CO2. Ca^2+ fluorimetry assays were carried out in order to determine the efficacy of the compounds on the TRPM8 channels. The cells were seeded in 96-well plates with a density of 25,000 cells per well. Three days after seeding, the medium was removed and 100 μl of the Fluo-4NW fluorescent probe from Invitrogen was added with a concentration of 5 μM in the presence of 0.02% pluronic acid; after 60 minutes of incubation at 37° C. in a humidified atmosphere with 5% of CO2, the fluorescence was measured in a microplate reader (POLARstar Omega) with a configuration of 485 nm for the excitation and 520 nm for the emission, during 20 cycles. […] In the wells that were used as negative controls, 1 μl of AMTB [N-(3-aminopropyl)-2-[(3-methylphenyl)methoxy]-N-(2-thienylmethyl)benzamide] was added to obtain a final concentration of 10 μM, to block the TRPM8 channels.
The amplitudes of the Ca^2+ increases, caused by the stimulation of the cells with the compounds, were measured by subtracting the basal fluorescence signal (mean intensity obtained before adding the compound) from the fluorescence peak obtained after applying the compounds. The obtained results were adjusted to a sigmoid function using the software suite of the GraphPad Prism computer program.

[1] = tested on: TRPM8, TRPV1 and TRPA1 channels; assay: Specificity by Ca2+ fluorescence microscopy in mouse dorsal root ganglion (DRG) neurons; type: cell-based; details: Fluo-4 AM fluorescence, FIG. 1
Method: Neurons obtained from a mouse dorsal root ganglion (DRG) were used to determine the specificity of the TZM-7 compound. These cells constitutively express the TRPM8, TRPV1 and TRPA1 channels, among others (the TRPV1 and TRPA1 channels are channels of the same family as the TRPM8 channel and are permeable to calcium). The intracellular Ca^2+ concentration was measured using fluorescence microscopy in order to view the activity of these channels. The cells were seeded with a density of 250,000 cells/well on round glass cover slips (18 mm diameter, […]) in 12-well plates (Costar) and cultured in Pure-EMEM during 3 days immediately before the Ca^2+ experiments. […] The cells that were not sensitive to the application of high potassium concentration were not analysed. […] The fluorescence measurements were taken using an Axiovert 200 inverted microscope from Zeiss (Oberkochen, Germany) coupled with an ORCA-ER CCD camera (Hamamatsu Photonics, Bridgewater, N.J.) and observed through a 10× magnification air lens. The Fluo-4 AM fluorescent probe was excited at 500 nm using a Lambda-10-2 filter wheel (Sutter Instruments, Novato, Calif.) and the emission fluorescence was filtered with a 535 nm longpass filter. […]

T1 sequence (Q7Z2W7 whole entry): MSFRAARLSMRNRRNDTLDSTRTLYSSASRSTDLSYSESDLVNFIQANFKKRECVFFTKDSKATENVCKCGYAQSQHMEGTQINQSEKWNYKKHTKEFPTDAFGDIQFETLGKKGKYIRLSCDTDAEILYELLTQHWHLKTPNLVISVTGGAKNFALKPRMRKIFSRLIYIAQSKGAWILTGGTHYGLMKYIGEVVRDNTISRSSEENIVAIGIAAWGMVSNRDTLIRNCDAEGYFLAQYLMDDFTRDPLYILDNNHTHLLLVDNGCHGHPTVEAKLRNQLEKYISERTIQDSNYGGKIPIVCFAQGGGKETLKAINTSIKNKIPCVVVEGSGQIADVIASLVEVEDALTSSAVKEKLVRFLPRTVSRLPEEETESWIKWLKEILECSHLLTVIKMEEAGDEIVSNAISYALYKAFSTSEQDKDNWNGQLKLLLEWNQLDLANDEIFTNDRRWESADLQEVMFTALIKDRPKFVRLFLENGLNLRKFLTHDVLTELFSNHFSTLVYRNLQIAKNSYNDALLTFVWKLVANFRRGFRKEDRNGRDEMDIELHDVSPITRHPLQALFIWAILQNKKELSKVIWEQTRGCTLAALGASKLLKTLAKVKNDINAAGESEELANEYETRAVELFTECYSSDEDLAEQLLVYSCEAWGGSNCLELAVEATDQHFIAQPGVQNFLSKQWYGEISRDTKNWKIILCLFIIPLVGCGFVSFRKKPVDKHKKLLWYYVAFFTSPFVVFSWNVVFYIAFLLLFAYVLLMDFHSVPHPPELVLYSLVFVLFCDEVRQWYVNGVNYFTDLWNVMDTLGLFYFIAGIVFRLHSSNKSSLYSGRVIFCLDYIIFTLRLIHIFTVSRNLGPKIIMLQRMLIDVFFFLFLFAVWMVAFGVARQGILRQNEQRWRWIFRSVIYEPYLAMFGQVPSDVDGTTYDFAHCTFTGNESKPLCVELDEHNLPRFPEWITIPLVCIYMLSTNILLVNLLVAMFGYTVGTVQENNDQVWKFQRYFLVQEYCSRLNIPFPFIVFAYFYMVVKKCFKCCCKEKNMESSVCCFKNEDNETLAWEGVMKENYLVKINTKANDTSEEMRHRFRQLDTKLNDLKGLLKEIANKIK

COc1cc(OC)cc(-c2cn([C@@H]3C[C@H](C)CC[C@H]3C(C)C)nn2)c1 [TZM-7, 4-(3,5-dimethoxyphenyl)-1-((1R,2S,5R)-2-isopropyl-5-methylcyclohexyl)-1H-1,2,3-triazole] was tested, and the “rate of lachrymation (tear secretion)” value (guinea pig) was “significantly increases the rate of lachrymation”, the activation at 10 µM (TRPM8; 10 μM, Fluo-4NW fluorescence) was 78.5 ± 30.6% and the EC50 (TRPM8; concentrations 0.1, 1, 10 and 100 μM, sigmoid fit) was 2910 ± 210 nM. For the same molecule, the “specificity to activate TRPM8 channels compared with other channels (TRPV1 and TRPA1)” value [1] was “high specificity”.

— US10905679B2, “TRPM8 receptor agonist compounds and uses thereof” (UNIVERSIDAD MIGUEL HERNANDEZ DE ELCHE, priority 2016, dated 2021)
